Experimental data reported in patent US8058475B2, “Substituted cyclohexylmethyl compounds” (Gruenenthal GmbH, priority 2005, dated 2011).
Read-outs that look alike come from different tables or passages of the source.

Molecular target: human μ-opiate receptor (Homo sapiens, UniProt P35372)
Experiment: Affinity for the human μ-opiate receptor ([3H]-naloxone displacement, SPA, CHO-K1 membrane preparation)
Type: binding
Conditions: for inhibition at 1 µM: read-out: μ-Opioid receptor, % inhibition [1 μM]; for Ki: read-out: μ-Opioid receptor, Ki
[1] = 1 μM test substance, inhibition of specific [3H]-naloxone binding

human μ-opiate receptor, sequence (P35372 whole entry): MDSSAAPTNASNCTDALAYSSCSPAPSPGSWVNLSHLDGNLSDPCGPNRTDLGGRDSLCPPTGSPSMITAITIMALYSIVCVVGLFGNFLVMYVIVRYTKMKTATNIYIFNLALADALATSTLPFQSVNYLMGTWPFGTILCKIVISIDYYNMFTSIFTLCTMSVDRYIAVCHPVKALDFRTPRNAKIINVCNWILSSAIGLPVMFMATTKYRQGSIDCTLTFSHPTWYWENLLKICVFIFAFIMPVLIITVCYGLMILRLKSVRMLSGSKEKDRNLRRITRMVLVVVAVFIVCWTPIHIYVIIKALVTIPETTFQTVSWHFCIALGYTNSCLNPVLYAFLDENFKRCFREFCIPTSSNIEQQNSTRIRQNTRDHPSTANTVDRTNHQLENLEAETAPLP

Work on `CN(C)C(c1cccs1)C1CCC(CNC(=O)c2c(F)cccc2F)CC1` (stereo not shown) [compound 313, N-[4-(dimethylamino-thiophen-2-yl-methyl)-cyclohexylmethyl]-2,6-difluoro-benzamide] yielded an inhibition at 1 µM of 97% and a Ki of 35 nM.

For `CN(C)C(CCc1ccccc1)C1CCC(NC(=O)c2cc(F)ccc2F)CC1` (stereo not shown) [compound 276, N-[4-(1-dimethylamino-3-phenyl-propyl)-cyclohexyl]-2,5-difluoro-benzamide], the inhibition at 1 µM was 74% and the Ki was 65 nM.

For `CN(C)C(c1ccc(Cl)cc1)C1CCC(CCNC(=O)c2cccc(Cl)c2)CC1` (stereo not shown) [compound 399, 3-chloro-N-(2-{4-[(4-chloro-phenyl)-dimethylamino-methyl]-cyclohexyl}-ethyl)-benzamide], the inhibition at 1 µM was 80% and the Ki was 110 nM.

Molecule `CN(C)C(c1ccc(F)cc1)C1CCC(CCNC(=O)c2csc(-c3ccccc3)n2)CC1` (stereo not shown) [compound 464, 2-phenyl-thiazole-4-carboxylic acid (2-{4-[dimethylamino-(4-fluoro-phenyl)-methyl]-cyclohexyl}-ethyl)-amide] has an inhibition at 1 µM of 92% and a Ki of 75 nM.

`CCSc1ncccc1C(=O)NCC1CCC(C(c2cccc(F)c2)N(C)C)CC1` (stereo not shown) [compound 388, N-{4-[dimethylamino-(3-fluoro-phenyl)-methyl]-cyclohexylmethyl}-2-ethylsulfanyl-nicotinamide] was tested, and the inhibition at 1 µM was 81% and the Ki was 36 nM.

Molecule `Cc1oc(-c2ccccc2)cc1C(=O)NC1CCC(C(c2ccccc2)N(C)C)CC1` (stereo not shown) [compound 214, 2-methyl-5-phenyl-furan-3-carboxylic acid [4-(dimethylamino-phenyl-methyl)-cyclohexyl]-amide] has an inhibition at 1 µM of 91% and a Ki of 28 nM.

Work on `CN(C)C(CCc1ccccc1)C1CCC(CNC(=O)c2csc3ccccc23)CC1` (stereo not shown) [compound 380, benzo[b]thiophene-3-carboxylic acid [4-(1-dimethylamino-3-phenyl-propyl)-cyclohexylmethyl]-amide] yielded an inhibition at 1 µM of 83% and a Ki of 95 nM.

`CN(C)C(c1ccccc1)C1CCC(NC(=O)c2csc(-c3ccccc3)n2)CC1` (stereo not shown) [compound 237, 2-phenyl-thiazole-4-carboxylic acid [4-(dimethylamino-phenyl-methyl)-cyclohexyl]-amide] showed an inhibition at 1 µM of 83% and a Ki of 48 nM.

With `CN(C)C(c1cccc(F)c1)C1CCC(CCNC(=O)c2ccccc2Cl)CC1` (stereo not shown) [compound 404, 2-chloro-N-(2-{4-[dimethylamino-(3-fluoro-phenyl)-methyl]-cyclohexyl}-ethyl)-benzamide] the inhibition at 1 µM was 97% and the Ki was 19 nM.

For `CN(C)C(c1ccccc1)C1CCC(CNC(=O)C2(c3ccc(Cl)cc3)CCCC2)CC1` (stereo not shown) [compound 339, 1-(4-chloro-phenyl)-cyclopentane-carboxylic acid [4-(dimethylamino-phenyl-methyl)-cyclohexylmethyl]-amide], the “μ-Opioid receptor, % inhibition [1 μM]” value was 91% and the Ki was 25 nM.

`CN(C)C(c1ccc(F)cc1)C1CCC(CCNC(=O)c2ccc3ccccc3c2)CC1` (stereo not shown) [compound 442, naphthalene-2-carboxylic acid (2-{4-[dimethylamino-(4-fluoro-phenyl)-methyl]-cyclohexyl}-ethyl)-amide] was tested, and the inhibition at 1 µM was 86% and the Ki was 110 nM.

With `CN(C)C(CCc1ccccc1)C1CCC(NC(=O)c2cccc(Br)c2)CC1` (stereo not shown) [compound 277, 3-bromo-N-[4-(1-dimethylamino-3-phenyl-propyl)-cyclohexyl]-benzamide] the inhibition at 1 µM was 74% and the Ki was 74 nM.

In the case of `CN(C)C(c1cccc(F)c1)C1CCC(NC(=O)CC(C)(C)C)CC1` (stereo not shown) [compound 251, N-{4-[dimethylamino-(3-fluoro-phenyl)-methyl]-cyclohexyl}-3,3-dimethyl-butyramide], the inhibition at 1 µM is reported as 81% and the Ki is reported as 91 nM.

With `CN(C)C(c1ccc(Cl)cc1)C1CCC(CCNC(=O)c2ccc(F)cc2F)CC1` (stereo not shown) [compound 436, N-(2-{4-[(4-chloro-phenyl)-dimethylamino-methyl]-cyclohexyl}-ethyl)-2,4-difluoro-benzamide] the inhibition at 1 µM was 91% and the Ki was 29 nM.

Work on `CN(C)C(c1ccccc1)C1CCC(CNC(=O)c2cc(Cl)cc(Cl)c2)CC1` (stereo not shown) [compound 329, 3,5-dichloro-N-[4-(dimethylamino-phenyl-methyl)-cyclohexylmethyl]-benzamide] yielded an inhibition at 1 µM of 94% and a Ki of 35 nM.

With `CN(C)C(c1cccc(F)c1)C1CCC(NC(=O)c2c(F)cccc2F)CC1` (stereo not shown) [compound 278, N-{4-[dimethylamino-(3-fluoro-phenyl)-methyl]-cyclohexyl}-2,6-difluoro-benzamide] the inhibition at 1 µM was 74% and the Ki was 86 nM.

For `CN(C)C(c1ccc(F)cc1)C1CCC(NC(=O)c2ccc(F)cc2)CC1` (stereo not shown) [compound 262, N-{4-[dimethylamino-(4-fluoro-phenyl)-methyl]-cyclohexyl}-4-fluoro-benzamide], the inhibition at 1 µM was 78% and the Ki was 96 nM.

In the case of `Cc1ccccc1C1(O)CCC(C(c2ccc(Cl)cc2)N(C)C)CC1` (stereo not shown) [compound 161, 4-[(4-chloro-phenyl)-dimethylamino-methyl]-1-o-tolyl-cyclohexanol], the inhibition at 1 µM [1] is reported as 60%.

`Cc1ccccc1C(=O)NCC1CCC(C(c2ccccc2)N(C)C)CC1` (single isomer, unassigned) [compound 317, N-[4-(dimethylamino-phenyl-methyl)-cyclohexylmethyl]-2-methyl-benzamide] showed an inhibition at 1 µM of 95% and a Ki of 29 nM.

With `CN(C)C(c1ccccc1)C1CCC(NC(=O)c2scc(S(C)(=O)=O)c2Cl)CC1` (stereo not shown) [compound 252, 3-chloro-4-methanesulfonyl-thiophene-2-carboxylic acid [4-(dimethylamino-phenyl-methyl)-cyclohexyl]-amide] the inhibition at 1 µM was 81% and the Ki was 20 nM.

With `CCCc1ccc(C(=O)NC2CCC(C(c3cccs3)N(C)C)CC2)cc1` (stereo not shown) [compound 185, N-[4-(dimethylamino-thiophen-2-yl-methyl)-cyclohexyl]-4-propyl-benzamide] the inhibition at 1 µM was 100% and the Ki was 37 nM.

`CC(Oc1ccccc1)C(=O)NCC1CCC(C(c2cccc(F)c2)N(C)C)CC1` (single isomer, unassigned) [compound 341, N-{4-[dimethylamino-(3-fluoro-phenyl)-methyl]-cyclohexylmethyl}-2-phenoxy-propionamide] was tested, and the Ki was 13 nM.

`CCCC(=O)N(CCc1c[nH]c2ccccc12)C1CCC(C(c2ccccc2)N(C)C)CC1` (stereo not shown) [compound 181, N-(2-(1H-indol-3-yl)ethyl)-N-(4-((dimethylamino)(phenyl)methyl)-cyclohexyl)butyramide] gave an inhibition at 1 µM of 95% and a Ki of 3.9 nM.

`Cc1ccccc1C(=O)NCCC1CCC(C(c2ccccc2)N(C)C)CC1` (single isomer, unassigned) [compound 417, N-{2-[4-(dimethylamino-phenyl-methyl)-cyclohexyl]-ethyl}-2-methyl-benzamide] showed an inhibition at 1 µM of 91% and a Ki of 31 nM.

For `COC(=O)C(Cc1c[nH]c2ccccc12)NC1CCC(C(c2ccccc2)N(C)C)CC1` (single isomer, unassigned) [compound 175, methyl 2-(4-((dimethylamino)(phenyl)methyl)cyclohexylamino)-3-(1H-indol-3-yl)propanoate], the “μ-Opioid receptor, % inhibition [1 μM]” value [1] was 86% and the Ki was 11 nM.

For `CN(C)C(c1cccc(F)c1)C1CCC(O)(c2ccc(Cl)c(C(F)(F)F)c2)CC1` (stereo not shown) [compound 157, 1-(4-chloro-3-trifluoromethyl-phenyl)-4-[dimethylamino-(3-fluoro-phenyl)-methyl]-cyclohexanol], the inhibition at 1 µM [1] was 72%.

In the case of `CCCCC1(O)CCC(C(c2ccc(Cl)cc2)N(C)C)CC1` (stereo not shown) [compound 167, 1-butyl-4-[(4-chloro-phenyl)-dimethylamino-methyl]-cyclohexanol], the inhibition at 1 µM [1] is reported as 58%.

In the case of `CN(C)C(c1cccs1)C1CCC(CNC(=O)c2cc(F)cc(C(F)(F)F)c2)CC1` (stereo not shown) [compound 308, N-[4-(dimethylamino-thiophen-2-yl-methyl)-cyclohexylmethyl]-3-fluoro-5-trifluoromethyl-benzamide], the inhibition at 1 µM is reported as 98% and the Ki is reported as 7.4 nM.

`COc1ccccc1C(=O)NCCC1CCC(C(c2ccccc2)N(C)C)CC1` (stereo not shown) [compound 414, N-{2-[4-(dimethylamino-phenyl-methyl)-cyclohexyl]-ethyl}-2-methoxy-benzamide] showed an inhibition at 1 µM of 99% and a Ki of 4.6 nM.

`CCn1nc(C)c(Br)c1C(=O)NC1CCC(C(c2cccs2)N(C)C)CC1` (stereo not shown) [compound 260, 4-bromo-2-ethyl-5-methyl-2H-pyrazole-3-carboxylic acid [4-(dimethylamino-thiophen-2-yl-methyl)-cyclohexyl]-amide] gave an inhibition at 1 µM of 78%.

Molecule `CN(C)C(c1ccccc1)C1CCC(CNC(=O)c2cc([N+](=O)[O-])cc([N+](=O)[O-])c2)CC1` (stereo not shown) [compound 392, N-[4-(dimethylamino-phenyl-methyl)-cyclohexylmethyl]-3,5-dinitro-benzamide] has a Ki (acylated amines (Table 20)) of 180 nM and an inhibition at 1 µM of 80%.

In the case of `CCn1nc(C)c(Br)c1C(=O)NCC1CCC(C(c2cccs2)N(C)C)CC1` (stereo not shown) [compound 375, 4-bromo-2-ethyl-5-methyl-2H-pyrazole-3-carboxylic acid [4-(dimethylamino-thiophen-2-yl-methyl)-cyclohexylmethyl]-amide], the inhibition at 1 µM is reported as 84%.

In the case of `CN(C)C(c1ccccc1)C1CCC(CNC(=O)c2csc3ccccc23)CC1` (stereo not shown) [compound 292, benzo[b]thiophene-3-carboxylic acid [4-(dimethylamino-phenyl-methyl)-cyclohexylmethyl]-amide], the inhibition at 1 µM is reported as 102% and the Ki is reported as 1.3 nM.

Work on `CC(=O)N(Cc1ccc(F)cc1)C1CCC(C(c2ccccc2)N(C)C)CC1` (stereo not shown) [compound 179, N-(4-((dimethylamino)(phenyl)methyl)cyclohexyl)-N-(4-fluorobenzyl)acetamide] yielded an inhibition at 1 µM of 99% and a Ki of 3 nM.

For `CN(C)C(c1cccs1)C1CCC(CCNC(=O)c2cc(F)c(Cl)cc2Cl)CC1` (stereo not shown) [compound 440, 2,4-dichloro-N-{2-[4-(dimethylamino-thiophen-2-yl-methyl)-cyclohexyl]-ethyl}-5-fluoro-benzamide], the inhibition at 1 µM was 95% and the Ki was 15 nM.
